The text below walks through data of paper PMC10725991, “Kaempferol is a novel antiviral agent against channel catfish virus infection through blocking viral attachment and penetration in vitro” (Frontiers in Veterinary Science, 2023).

For experiment [1], the system named is CCV (strain VR-665) in CCO cells. Kind of experiment: Anti-CCV replication assay of kaempferol, RT-qPCR. It is filed as cell-based, Channel catfish virus (CCV, Ictalurid herpesvirus 1). The method, then:
The CCO cells were infected with the CCV at 10^3 TCID50/ml at 28°C for 1 h. Then, the cell culture medium was replaced using isopycnic DMEM medium containing various concentrations kaempferol (2.5, 5, 7.5, 10, 12.5, and 15 μg/mL). The cells without exposure to kaempferol and CCV were set as the mock control. CCV-infected cells served as a negative control. 24 and 36 h post-infection, the cells were collected and subjected to the RT-qPCR and western blot analysis for the viral gene and protein expression. Meanwhile, the cells were treated as described above for the determination of virus titer. […]
(§1) For RT-qPCR, the total RNA was isolated from CCV-infected cells using RnaExTM (Trizol)^a reagent (GENERAY, China), and reversed transcribed applying a HiScript III RT SuperMix with gDNA wiper (Vazyme, China) following the manufacturer’s instructions. Quantitative PCR was performed with a LightCycler 96 Real-Time PCR Detection System (Roche, USA) using ChamQ Universal SYBR qPCR Master Mix (Vazyme, China) with the following cycle conditions: 95°C for 30 s, followed by 40 cycles of 95°C for 10 s and 60°C for 30 s. […] Fold changes of the selected gene vs 18 s (internal reference) were calculated by the 2^−△△Ct method.
Figure 3 The anti-CCV activity by different concentration of kaempferol in vitro. […] The p value was determined by *p < 0.05, **p < 0.01.
Background: Quantitative PCR measures a nucleic acid by following its amplification.

The next experiment relates to CCV in CCO cells. Kind of experiment: Virus attachment assay. In kind it is cell-based, Channel catfish virus (CCV, Ictalurid herpesvirus 1). Particulars: kaempferol 15 μg/mL, 24 h. The procedure:
The attachment assay was performed as previously described, with slight modifications ([35]). Briefly, monolayer CCO cells seeded in 24-well plates were pre-cooled at 4°C for 30 min, and then the pre-cooled cells were treated with kaempferol (15 μg/mL) or left untreated for 2 h at 4°C. Cells were then incubated with CCV at 4°C for 1 h to allow virus attachment but prevent viral internalization. Thereafter, the compound and unattached virus were washed with ice-cold PBS and a fresh DMEM medium was added. After incubated at 28°C for 24 h, the cells were collected for subsequent experiments, including RT-qPCR and viral titer.
Measurement of viral titer was described previously ([5]). […]
as §1, with “method. […]” for “method.”

For `O=c1c(O)c(-c2ccc(O)cc2)oc2cc(O)cc(O)c12` [Kaempferol], the “inhibitory effect of CCV-ORF 39 and CCV-ORF 59” value in experiment [1] (24 h post viral infection, kaempferol 2.5-15 μg/mL, RT-qPCR) was “over 85%”. Besides, the “viral mRNA levels compared with the control group” value in experiment [1] (36 h post viral infection, kaempferol 10 μg/mL to 15 μg/mL) is on record as “significantly lower”. In addition, the “down-regulation of viral attachment (CCV ORF 39/ORF 59, RT-qPCR) vs CCV control” value in the experiment on CCV in CCO cells (2 h at 4°C) was “more than 50%”. The “production of intracellular virus (virus titer), attachment assay” value in the experiment on CCV in CCO cells is recorded as “significantly reduced”.
